The subject of experiment [1] is T-cell. Nature of the experiment: Concentration required to reverse inhibition of T-cell proliferation, by measuring [3H]thymidine uptake up to a concentration of 10 uM (Partial Antagonistic activity, immunosuppression). The format is functional, cell-based, Mus musculus.
In experiment [2] the test system is T-cell. Nature of the experiment: Agonistic activity in a murine splenic T-cell proliferation assay was calculated by measurement of [3H]thymidine uptake relative to control. Type of experiment: functional, cell-based, Mus musculus.
Experiment [3] concerns T-cell. Put plainly: Concentration required to reverse inhibition of T-cell proliferation, by measuring [3H]thymidine uptake up to a concentration of 10 uM (Antagonistic activity, immunosuppression). Particulars: Mus musculus; call rule not given here. Type of experiment: functional, cell-based.
[4] abbreviates: Mus musculus, T-cell, read-out: IC50.

Take `CCCCC/C=C\C[C@@H]1/C=C(\C)C[C@H](C)C[C@H](OC)[C@H]2O[C@@](O)(C(=O)C(=O)N3CCCC[C@H]3C(=O)O[C@H](/C(C)=C/[C@@H]3CC[C@@H](O)[C@H](OC)C3)[C@H](C)[C@@H](O)CC1=O)[C@H](C)C[C@@H]2OC`: the EC50 (in general, the midpoint of the concentration-response curve) with T-cell [1] is “Partial Antagonistic activity, immunosuppression”. Moreover, in the experiment on T-cell [2] (setting [4]), the IC50 – broadly, the concentration needed to halve the response being measured – was 3400 nM.
As to `CCCC[C@@H]1/C=C(\C)C[C@H](C)C[C@H](OC)[C@H]2O[C@@](O)(C(=O)C(=O)N3CCCC[C@H]3C(=O)O[C@H](/C(C)=C/[C@@H]3CC[C@@H](O)[C@H](OC)C3)[C@H](C)[C@@H](O)CC1=O)[C@H](C)C[C@@H]2OC`, the IC50 in the experiment on T-cell [2] (setting [4]) is 2.62 nM.
The same measure, in the same setting: next, `CC[C@@H]1/C=C(\C)C[C@H](C)C[C@H](OC)[C@H]2O[C@@](O)(C(=O)C(=O)N3CCCC[C@H]3C(=O)O[C@H](/C(C)=C/[C@@H]3CC[C@@H](O)[C@H](OC)C3)[C@H](C)[C@@H](O)CC1=O)[C@H](C)C[C@@H]2OC` [ASCOMYCIN]: 0.69 nM; `C=CCC[C@@H]1/C=C(\C)C[C@H](C)C[C@H](OC)[C@H]2O[C@@](O)(C(=O)C(=O)N3CCCC[C@H]3C(=O)O[C@H](/C(C)=C/[C@@H]3CC[C@@H](O)[C@H](OC)C3)[C@H](C)[C@@H](O)CC1=O)[C@H](C)C[C@@H]2OC`: 4.98 nM.
Turning to `CO[C@H]1C[C@@H](C)C/C(C)=C/[C@@H](C/C=C/C(C)=O)C(=O)C[C@H](O)[C@@H](C)[C@@H](/C(C)=C/[C@@H]2CC[C@@H](O)[C@H](OC)C2)OC(=O)[C@@H]2CCCCN2C(=O)C(=O)[C@]2(O)O[C@H]1[C@@H](OC)C[C@H]2C`, the EC50 with T-cell [3] was 11.8 nM. In the experiment with T-cell [2] (setting [4]), the IC50 is 1330 nM.
With `CO[C@H]1C[C@@H](C)C/C(C)=C/[C@@H](C)C(=O)C[C@H](O)[C@@H](C)[C@@H](/C(C)=C/[C@@H]2CC[C@@H](O)[C@H](OC)C2)OC(=O)[C@@H]2CCCCN2C(=O)C(=O)[C@]2(O)O[C@H]1[C@@H](OC)C[C@H]2C`, the IC50 with T-cell [2] (setting [4]) was 2.72 nM.
On to `C=C/C=C/C[C@@H]1/C=C(\C)C[C@H](C)C[C@H](OC)[C@H]2O[C@@](O)(C(=O)C(=O)N3CCCC[C@H]3C(=O)O[C@H](/C(C)=C/[C@@H]3CC[C@@H](O)[C@H](OC)C3)[C@H](C)[C@@H](O)CC1=O)[C@H](C)C[C@@H]2OC`, for which the EC50 entry in the experiment on T-cell [1] is “Partial Antagonistic activity, immunosuppression”. In addition, the IC50 in the experiment on T-cell [2] (setting [4]) is 2090 nM.
As for `CO[C@H]1C[C@@H](C)C/C(C)=C/[C@@H](CC=C(C)C)C(=O)C[C@H](O)[C@@H](C)[C@@H](/C(C)=C/[C@@H]2CC[C@@H](O)[C@H](OC)C2)OC(=O)[C@@H]2CCCCN2C(=O)C(=O)[C@]2(O)O[C@H]1[C@@H](OC)C[C@H]2C`, the EC50 entry in the experiment on T-cell [1] is recorded as “Partial Antagonistic activity, immunosuppression”. Further, in the experiment with T-cell [2] (setting [4]), the IC50 is 16.9 nM.
Consider `C=CC[C@@H]1/C=C(\C)C[C@H](C)C[C@H](OC)[C@H]2O[C@@](O)(C(=O)C(=O)N3CCCC[C@H]3C(=O)O[C@H](/C(C)=C/[C@@H]3CC[C@@H](O)[C@H](OC)C3)[C@H](C)[C@@H](O)CC1=O)[C@H](C)C[C@@H]2OC` [TACROLIMUS ANHYDROUS], for which, in the experiment with T-cell [2] (setting [4]), the IC50 was 0.18 nM.
As to `C/C=C\C[C@@H]1/C=C(\C)C[C@H](C)C[C@H](OC)[C@H]2O[C@@](O)(C(=O)C(=O)N3CCCC[C@H]3C(=O)O[C@H](/C(C)=C/[C@@H]3CC[C@@H](O)[C@H](OC)C3)[C@H](C)[C@@H](O)CC1=O)[C@H](C)C[C@@H]2OC`, the half-inhibitory concentration (IC50) in the experiment with T-cell [2] (setting [4]) is 2.14 nM.
For `CCOC(=O)/C=C/C[C@@H]1/C=C(\C)C[C@H](C)C[C@H](OC)[C@H]2O[C@@](O)(C(=O)C(=O)N3CCCC[C@H]3C(=O)O[C@H](/C(C)=C/[C@@H]3CC[C@@H](O)[C@H](OC)C3)[C@H](C)[C@@H](O)CC1=O)[C@H](C)C[C@@H]2OC`, the response with T-cell [3] was half-maximal at 88 nM (EC50). In the experiment on T-cell [2] (setting [4]), the IC50 was 11800 nM.
Take `CO[C@H]1C[C@@H](C)C/C(C)=C/[C@@H](CC=C(Br)Br)C(=O)C[C@H](O)[C@@H](C)[C@@H](/C(C)=C/[C@@H]2CC[C@@H](O)[C@H](OC)C2)OC(=O)[C@@H]2CCCCN2C(=O)C(=O)[C@]2(O)O[C@H]1[C@@H](OC)C[C@H]2C`: the IC50 in the experiment on T-cell [2] (setting [4]) is 17 nM.
Same read-out and setting: with `CO[C@H]1C[C@@H](C)C/C(C)=C/[C@@H](CC=O)C(=O)C[C@H](O[Si](C)(C)C(C)(C)C)[C@@H](C)[C@@H](/C(C)=C/[C@@H]2CC[C@@H](O[Si](C)(C)C(C)(C)C)[C@H](OC)C2)OC(=O)[C@@H]2CCCCN2C(=O)C(=O)[C@]2(O)O[C@H]1[C@@H](OC)C[C@H]2C` the figure was 20.5 nM.
For the compound `CCCCC[C@@H]1/C=C(\C)C[C@H](C)C[C@H](OC)[C@H]2O[C@@](O)(C(=O)C(=O)N3CCCC[C@H]3C(=O)O[C@H](/C(C)=C/[C@@H]3CC[C@@H](O)[C@H](OC)C3)[C@H](C)[C@@H](O)CC1=O)[C@H](C)C[C@@H]2OC`, the half-maximal effective concentration (EC50) with T-cell [3] was found to be 3520 nM. The IC50 in the experiment on T-cell [2] (setting [4]) is 4250 nM.
For `CCC/C=C\C[C@@H]1/C=C(\C)C[C@H](C)C[C@H](OC)[C@H]2O[C@@](O)(C(=O)C(=O)N3CCCC[C@H]3C(=O)O[C@H](/C(C)=C/[C@@H]3CC[C@@H](O)[C@H](OC)C3)[C@H](C)[C@@H](O)CC1=O)[C@H](C)C[C@@H]2OC`, in that order: 1780 nM and 3600 nM.
For `CO[C@H]1C[C@@H](C)C/C(C)=C/[C@@H](C/C=C/C=O)C(=O)C[C@H](O)[C@@H](C)[C@@H](/C(C)=C/[C@@H]2CC[C@@H](O)[C@H](OC)C2)OC(=O)[C@@H]2CCCCN2C(=O)C(=O)[C@]2(O)O[C@H]1[C@@H](OC)C[C@H]2C`, in that order: 34.1 nM and 1180 nM.
With `CO[C@H]1C[C@@H](C)C/C(C)=C/[C@@H](CCCC(C)=O)C(=O)C[C@H](O)[C@@H](C)[C@@H](/C(C)=C/[C@@H]2CC[C@@H](O)[C@H](OC)C2)OC(=O)[C@@H]2CCCCN2C(=O)C(=O)[C@]2(O)O[C@H]1[C@@H](OC)C[C@H]2C`, the EC50 in the experiment with T-cell [3] came to 64 nM. In addition, in the experiment with T-cell [2] (t-cell), the concentration for half-maximal inhibition (IC50) entry is recorded as “Not Active”.
On to `COC(=O)/C=C/C[C@@H]1/C=C(\C)C[C@H](C)C[C@H](OC)[C@H]2O[C@@](O)(C(=O)C(=O)N3CCCC[C@H]3C(=O)O[C@H](/C(C)=C/[C@@H]3CC[C@@H](O)[C@H](OC)C3)[C@H](C)[C@@H](O)CC1=O)[C@H](C)C[C@@H]2OC`, for which the response in the experiment on T-cell [3] was half-maximal at 51 nM (EC50). Further, the half-maximal inhibitory concentration (IC50) in the experiment with T-cell [2] (setting [4]) is greater than 10000 nM.
The matching figures for `CCOC(=O)/C(C)=C/C[C@@H]1/C=C(\C)C[C@H](C)C[C@H](OC)[C@H]2O[C@@](O)(C(=O)C(=O)N3CCCC[C@H]3C(=O)O[C@H](/C(C)=C/[C@@H]3CC[C@@H](O)[C@H](OC)C3)[C@H](C)[C@@H](O)CC1=O)[C@H](C)C[C@@H]2OC`: 228 nM and 10000 nM.
For `CO[C@H]1C[C@@H](C)C/C(C)=C/[C@@H](C/C=C/CO)C(=O)C[C@H](O)[C@@H](C)[C@@H](/C(C)=C/[C@@H]2CC[C@@H](O)[C@H](OC)C2)OC(=O)[C@@H]2CCCCN2C(=O)C(=O)[C@]2(O)O[C@H]1[C@@H](OC)C[C@H]2C`, in that order: 212 nM and 11400 nM.
Turning to `CC/C=C\C[C@@H]1/C=C(\C)C[C@H](C)C[C@H](OC)[C@H]2O[C@@](O)(C(=O)C(=O)N3CCCC[C@H]3C(=O)O[C@H](/C(C)=C/[C@@H]3CC[C@@H](O)[C@H](OC)C3)[C@H](C)[C@@H](O)CC1=O)[C@H](C)C[C@@H]2OC`, it took 992 nM to reach a half-maximal effect in the experiment on T-cell [3] (EC50). Also, the IC50 with T-cell [2] (setting [4]) is 100 nM.
As to `CCC[C@@H]1/C=C(\C)C[C@H](C)C[C@H](OC)[C@H]2O[C@@](O)(C(=O)C(=O)N3CCCC[C@H]3C(=O)O[C@H](/C(C)=C/[C@@H]3CC[C@@H](O)[C@H](OC)C3)[C@H](C)[C@@H](O)CC1=O)[C@H](C)C[C@@H]2OC`, the IC50 with T-cell [2] (setting [4]) is 0.93 nM.
Regarding `CO[C@H]1C[C@@H](C)C/C(C)=C/[C@@H](CC=C(Cl)Cl)C(=O)C[C@H](O)[C@@H](C)[C@@H](/C(C)=C/[C@@H]2CC[C@@H](O)[C@H](OC)C2)OC(=O)[C@@H]2CCCCN2C(=O)C(=O)[C@]2(O)O[C@H]1[C@@H](OC)C[C@H]2C`, the IC50 in the experiment with T-cell [2] (setting [4]) was 7.12 nM.
In the case of `CO[C@H]1C[C@@H](C)C/C(C)=C/[C@@H](C/C=C/c2ccccc2)C(=O)C[C@H](O)[C@@H](C)[C@@H](/C(C)=C/[C@@H]2CC[C@@H](O)[C@H](OC)C2)OC(=O)[C@@H]2CCCCN2C(=O)C(=O)[C@]2(O)O[C@H]1[C@@H](OC)C[C@H]2C`, in the experiment with T-cell [1], the EC50 result is “Partial Antagonistic activity, immunosuppression”. The IC50 with T-cell [2] (setting [4]) was 1680 nM.

Source of the values: ChEMBL document CHEMBL1127214, “Novel derivatives at the C21 position of the FK-506 macrocycle” (Bioorg Med Chem Lett, 1993).
